Structures can show the parent of a compound that is named as a salt.

This assay deals with T1, recombinant human TGR5 (Homo sapiens, UniProt Q8TDU6).
T1 construct: expressed in transfected cells
T1 sequence (Q8TDU6 1-330): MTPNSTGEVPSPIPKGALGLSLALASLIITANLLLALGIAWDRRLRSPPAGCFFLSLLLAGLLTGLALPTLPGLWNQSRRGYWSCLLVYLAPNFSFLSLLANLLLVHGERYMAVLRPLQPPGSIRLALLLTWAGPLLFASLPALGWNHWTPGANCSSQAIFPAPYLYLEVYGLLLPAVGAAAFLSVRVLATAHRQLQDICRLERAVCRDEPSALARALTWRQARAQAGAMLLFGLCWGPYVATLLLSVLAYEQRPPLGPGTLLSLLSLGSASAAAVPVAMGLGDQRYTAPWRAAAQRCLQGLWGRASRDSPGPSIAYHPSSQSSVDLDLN
The assay is described as follows: cAMP assay (cAMP accumulation, HTRF) in CHOK1 cells stably expressing TGR5. Conditions: CHOK1 cells stably expressing human TGR5, 30 minutes at RT, 1% DMSO. Format: cell-based. In a few lines:
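CHOK1 cells stably expressing TGR5 (text also calls it chimeric human/mouse), 0.4-0.5×10^6 cells/mL in PBS with Ca/Mg and 0.1 mM IBMX, compound 30 min at RT, 1% DMSO. cAMP by HTRF 665/620 interpolated to a standard curve; EC50 from 4-parameter fit as half-maximal increase.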
For orientation: Changes in cAMP serve as a functional read-out for many G protein-coupled receptors.
As to `CCOC(=O)CNC(=O)Nc1cccc(Cn2cc(-c3cccc4c3[C@H]3C[C@H]3CN4C(=O)CCCOc3cccc(Cl)c3C)cn2)c1` [Example 914, Ethyl 2-(3-(3-((4-((1aR,7bS)-3-(4-(3-chloro-2-methylphenoxy)butanoyl)-1a,2,3,7b-tetrahydro-1H-cyclopropa[c]quinolin-7-yl)-1H-pyrazol-1-yl)methyl)phenyl)ureido)acetate], the EC50 (usually the concentration needed to bring the measured effect to its halfway point) worked out at 32 nM.

In the case of `Cc1c(Cl)cccc1OCCCC(=O)N1CCSc2c(-c3cnn(Cc4cccc(C(=O)NCCO)c4)c3)cccc21` [Example 592, 3-((4-(4-(4-(3-Chloro-2-methylphenoxy)butanoyl)-3,4-dihydro-2H-benzo[b][1,4]thiazin-8-yl)-1H-pyrazol-1-yl)methyl)-N-(2-hydroxyethyl) benzamide], the 50% effective concentration (EC50) is 30 nM.

As to `Cc1cccc(OCCCC(=O)N2CCCc3c(-c4cnn(Cc5cccc(C(=O)NCCS(=O)(=O)O)c5)c4C)cccc32)c1C` [Example 168J, 2-(3-((4-(1-(4-(2,3-Dimethylphenoxy)butanoyl)-1,2,3,4-tetrahydroquinolin-5-yl)-5-methyl-1H-pyrazol-1-yl)methyl)benzamido) ethanesulfonic acid], the concentration giving a half-maximal response (EC50) was found to be 643 nM.

For the molecule `Cc1cccc(N(CCCC(=O)N2CCCc3c(-c4cnn(Cc5cccc(C(=O)O)c5)c4)cccc32)C(=O)OC(C)(C)C)c1C` [Example 933, 3-((4-(1-(4-(tert-Butoxycarbonyl(2,3-dimethylphenyl)amino)butanoyl)-1,2,3,4-tetrahydroquinolin-5-yl)-1H-pyrazol-1-yl)methyl)benzoic acid], the half-maximal effective concentration (EC50) worked out at 1610 nM.

`O=C(O)c1cccc(Cn2cc(-c3cccc4c3C3CC3CN4C(=O)OCCOc3c(F)cccc3F)cn2)c1` (centres unmarked) [Example 32A, 3-((4-(3-((2-(2,6-Difluorophenoxy)ethoxy)carbonyl)-1a,2,3,7b-tetrahydro-1H-cyclopropa[c]quinolin-7-yl)-1H-pyrazol-1-yl)methyl)benzoic acid]: the EC50 was determined as 3400 nM.

`Cc1c(Cl)cccc1OCCCC(=O)N1Cc2ccccc2Oc2c(-c3cnn(Cc4c(F)cc(C(=O)NCCC(=O)O)cc4Cl)c3)cccc21` [Example 784, 3-(3-Chloro-4-((4-(10-(4-(3-chloro-2-methylphenoxy)butanoyl)-10,11-dihydrodibenzo[b,f][1,4]oxazepine-6-yl)-1H-pyrazol-1-yl)methyl)-5-fluorobenzamido)propanoic acid]: the EC50 amounted to 200 nM.

For the molecule `Cc1c(Cl)cccc1OCCOC(=O)N1CC(O)COc2c(-c3cnn(Cc4c(F)cc(C(=O)O)cc4Cl)c3)cccc21` (centres unmarked) [Example 334, 3-Chloro-4-((4-(5-((2-(3-chloro-2-methylphenoxy)ethoxy)carbonyl)-3-hydroxy-2,3,4,5-tetrahydrobenzo[b][1,4]oxazepin-9-yl)-1H-pyrazol-1-yl)methyl)-5-fluorobenzoic acid], the EC50 amounted to 1260 nM.

`Cc1cccc(OCCCC(=O)N2CCCc3c(-c4nnn(Cc5cccc(C(=O)O)c5)n4)cccc32)c1C` [Example 112, 3-((5-(1-(4-(2,3-Dimethylphenoxy)butanoyl)-1,2,3,4-tetrahydroquinolin-5-yl)-2H-tetrazol-2-yl)methyl)benzoic acid]: the EC50 was 145 nM.

As to `Cc1c(Cl)cccc1OCCOC(=O)N1C[C@@H]2C[C@@H]2c2c(-c3cnn(Cc4cc(C(=O)NC(CNS(C)(=O)=O)C(=O)O)ccc4Cl)c3)cccc21` (stereo partly drawn) [Example 685, 2-(4-Chloro-3-((4-((1aR,7bS)-3-((2-(3-chloro-2-methylphenoxy)ethoxy)carbonyl)-1a,2,3,7b-tetrahydro-1H-cyclopropa[c]quinolin-7-yl)-1H-pyrazol-1-yl)methyl)benzamido)-3-(methylsulfonamido)propanoic acid], the 50% effective concentration (EC50) is 49 nM.

For `Cc1c(Cl)cccc1OCCCC(=O)N1CCSc2c(-c3cnn(Cc4cccc(C(=O)N[C@@H](CC[N+](C)(C)C)C(=O)O)c4)c3)cccc21` [Example 617, (S)-3-Carboxy-3-(3-((4-(4-(4-(3-chloro-2-methylphenoxy)butanoyl)-3,4-dihydro-2H-benzo[b][1,4]thiazin-8-yl)-1H-pyrazol-1-yl)methyl)benzamido)-N,N,N-trimethylpropan-1-aminium, TFA salt], the EC50 was determined as 175 nM.

`Cc1cccc(OCCCC(=O)N2CCCc3c(-c4cccc(COC(=O)NC(CP(=O)(O)O)C(=O)O)c4)cccc32)c1C` (centres unmarked) [Example 319, 2-((3-(1-(4-(2,3-Dimethylphenoxy)butanoyl)-1,2,3,4-tetrahydroquinolin-5-yl)benzyloxy)carbonylamino)-3-phosphonopropanoic acid]: the EC50 was 3820 nM.

On to `Cc1cccc(OCCCC(=O)N2CCCc3c(-c4cnn(Cc5cccc(C(=O)N[C@@H](Cc6ccccc6)C(=O)O)c5)c4)cccc32)c1C` [Example 848, (S)-2-(3-((4-(1-(4-(2,3-Dimethylphenoxy)butanoyl)-1,2,3,4-tetrahydroquinolin-5-yl)-1H-pyrazol-1-yl)methyl)benzamido)-3-phenylpropanoic acid], for which the EC50 came to 196 nM.

For the molecule `Cc1c(Cl)cccc1OCCCC(=O)N1CCCOc2c(-c3cnn(Cc4cccc(NC(=O)NCC(=O)O)c4)c3)cccc21` [Example 521, 2-(3-(3-((4-(5-(4-(3-Chloro-2-methylphenoxy)butanoyl)-2,3,4,5-tetrahydrobenzo[b] [1,4]oxazepin-9-yl)-1H-pyrazol-1-yl)methyl)phenyl)ureido)acetic acid], the half-maximal effective concentration (EC50) turned out to be 176 nM.

`Cc1cccc(OCCCC(=O)N2CCCc3c(-c4cnn(Cc5cccc(N(C)C(=O)NCC[N+](C)(C)C)c5)c4)cccc32)c1C` [Example 471, 2-(3-(3-((4-(1-(4-(2,3-Dimethylphenoxy)butanoyl)-1,2,3,4-tetrahydroquinolin-5-yl)-1H-pyrazol-1-yl)methyl)phenyl)-3-methylureido)-N,N,N-trimethylethanaminium, TFA salt]: the EC50 is 2170 nM.

In the case of `Cc1c(Cl)cccc1OCCCC(=O)N1CCCOc2c(-c3cnn(Cc4cccc(C(=O)NCS(=O)(=O)O)c4)c3)cccc21` [Example 146R, (3-((4-(5-(4-(3-Chloro-2-methylphenoxy)butanoyl)-2,3,4,5-tetrahydrobenzo[b][1,4]oxazepin-9-yl)-1H-pyrazol-1-yl)methyl)benzamido) methanesulfonic acid], the concentration giving a half-maximal response (EC50) was determined as 49 nM.

For `Cc1c(Cl)cccc1OCCCC(=O)N1CCSc2c(-c3cnn(Cc4c(F)cc(C(=O)NCCC[C@H](N)C(=O)O)cc4Cl)c3)cccc21` [Example 583, (S)-2-Amino-5-(3-chloro-4-((4-(4-(4-(3-chloro-2-methylphenoxy)butanoyl)-3,4-dihydro-2H-benzo[b][1,4]thiazin-8-yl)-1H-pyrazol-1-yl)methyl)-5-fluorobenzamido) pentanoic acid], the EC50 stood at 43 nM.

Regarding `Cc1cccc(OCCCC(=O)N2CCCc3c(-c4cnn(CC(=O)C(C)(C)CC(=O)O)c4)cccc32)c1C` [Example 493, 5-(4-(1-(4-(2,3-Dimethylphenoxy)butanoyl)-1,2,3,4-tetrahydroquinolin-5-yl)-1H-pyrazol-1-yl)-3,3-dimethyl-4-oxopentanoic acid], the EC50 amounted to 4150 nM.

On to `Cc1c(Cl)cccc1OCCOC(=O)N1C[C@@H]2C[C@@H]2c2c(-c3cnn(Cc4cccc(C(C)(C)O)c4)c3)cccc21` [Example 434, (1aR,7bS)-2-(3-Chloro-2-methylphenoxy)ethyl 7-(1-(3-(2-hydroxypropan-2-yl)benzyl)-1H-pyrazol-4-yl)-1a,2-dihydro-1H-cyclopropa [c]quinoline-3(7bH)-carboxylate], for which the EC50 is 183 nM.

Take `Cc1cccc(OCCCC(=O)N2CCCc3c(-c4cnn(Cc5c(F)cc(C(=O)NCCC[C@H](NC(=N)N)C(=O)O)cc5Cl)c4)cccc32)c1C` [Example 171, (S)-5-(3-Chloro-4-((4-(1-(4-(2,3-dimethylphenoxy)butanoyl)-1,2,3,4-tetrahydroquinolin-5-yl)-1H-pyrazol-1-yl)methyl)-5-fluorobenzamido)-2-guanidinopentanoic acid, TFA salt]: the EC50 was found to be 56 nM.

As to `Cc1cccc(OCCCC(=O)N(C)c2cccc(-c3cnn(Cc4cccc(C(=O)NCCC(=O)O)c4)c3)c2)c1C` [Example 552, 3-(3-((4-(3-(4-(2,3-Dimethylphenoxy)-N-methylbutanamido)phenyl)-1H-pyrazol-1-yl)methyl)benzamido)propanoic acid], the EC50 was 2380 nM.

For `Cc1c(Cl)cccc1OCCCC(=O)N1CCCOc2c(-c3cnn(Cc4c(F)cc(C(=O)NCC(=O)O)cc4Cl)c3)cccc21` [Example 786, 2-(3-Chloro-4-((4-(5-(4-(3-chloro-2-methylphenoxy)butanoyl)-2,3,4,5-tetrahydrobenzo[b][1,4]oxazepin-9-yl)-1H-pyrazol-1-yl)methyl)-5-fluorobenzamido)acetic acid], the 50% effective concentration (EC50) was determined as 173 nM.

For `Cc1cccc(OCCCC(=O)N2C[C@@H]3C[C@@H]3c3c(-c4cnn(Cc5cccc(NC(=O)NCC(=O)O)c5)c4)cccc32)c1C` (single isomer, unassigned) [Example 250], the EC50 was 29 nM.

Regarding `Cc1cccc(OCCCC(=O)N2CCCc3c(-c4cccc(COC(=O)NC(CCS)C(=O)O)c4)cccc32)c1C` (centres unmarked) [Example 289, 2-((3-(1-(4-(2,3-Dimethylphenoxy)butanoyl)-1,2,3,4-tetrahydroquinolin-5-yl)benzyloxy)carbonylamino)-4-mercaptobutanoic acid], the EC50 stood at 2810 nM.

These data come from patent US9062028B2, “Bicyclic nitrogen containing heteroaryl TGR5 receptor modulators” (Bristol-Myers Squibb Company, priority 2011, dated 2015).
